Measurements taken from patent US20130310396A1, “THIAZOLIDINE DERIVATIVES AND THEIR THERAPEUTIC USE” (priority 2011, published 2013).

Test: in vitro
Type: in vitro ADME
Conditions: human liver microsomes, 0.5 mg/mL microsomal protein, 1 mM NADPH, 37° C., N=1; for half-life: both sexes
Protocol: The liver microsomes stability of compounds of Examples 1, 4 and 5 were compared with Teneligliptin.
The metabolic stability of compounds of the invention was tested using pooled liver microsomes prepared from mixed-gender humans, with 1 mM NADPH. The samples were analyzed using an LTQ-Orbitrap XL mass spectrometer. HRMS was used to determine the peak area response ratio (peak area corresponding to test compound or control divided by that of an analytical internal standard) without running a standard curve. HRMS scan was performed in an appropriate m/z range in order to detect all plausible metabolites.
The assay was run with a single incubation (N=1). Incubated test compounds at 37° C. in a buffer solution containing 0.5 mg/mL microsomal protein. Initiated the reaction by adding cofactors, sampling at 0, 10, 20, 30, and 60 minutes. Incubated positive control (5 μM testosterone) in parallel and sampling at 0, 5 10, and 30 minutes.
The control compound testosterone was run in parallel to verify the enzymatic activity of the microsomes. After the final time point, fluorimetry was used to confirm the addition of NADPH to the reaction mixture. T1/2 of control met the internal acceptance criteria.
Column: Thermo BDS Hypersil C18 30×2.0 mm, 3 μm, with guard column M.P. Buffer: 25 mM ammonium formate buffer, pH 3.5 Aqueous Reservoir (A): 90% water, 10% buffer Organic Reservoir (B): 90% acetonitrile, 10% buffer

Row | half-life [h] | Percentage Remaining 0 min [%] | Percentage Remaining 10 min [%] | Percentage Remaining 20 min [%] | Percentage Remaining 30 min [%] | Percentage Remaining 60 min [%] | Compound
1 | > 1 | 100 | 95 | 87 | 75 | 65 | [2H]c1ccc(-n2nc(C)cc2N2CCN([C@@H]3CN[C@H](C(=O)N4CCSC4)C3)CC2)cc1 [Example 4, ((2S,4S)-4-(4-(1-(4-D-Phenyl)-3-methyl-1H-pyrazol-5-yl)piperazin-1-yl)pyrrolidin-2-yl)(thiazolidin-3-yl)methanone]
2 | > 1 | 100 | 90 | 85 | 65 | 55 | Cc1cc(N2CCN([C@@H]3CN[C@H](C(=O)N4CCSC4)C3)CC2)n(-c2ccccc2)n1 [Teneligliptin, ((2S,4S)-4-(4-(3-methyl-1-phenyl-1H-pyrazol-5-yl)piperazin-1-yl)pyrrolidin-2-yl)(thiazolidin-3-yl)methanone, reference compound]
3 | > 1 | 100 | 92 | 85 | 70 | 60 | [2H]C1([2H])CSC([2H])([2H])N1C(=O)C1CC(N2CCN(c3cc(C)nn3-c3ccccc3)CC2)CN1 [Example 1, ((2S,4S)-4-(4-(3-Methyl-1-phenyl-1H-pyrazol-5-yl)piperazin-1-yl)pyrrolidin-2-yl)(2,2,4,4-D4-thiazolidin-3-yl)methanone]
4 | > 1 | 100 | 90 | 87 | 70 | 60 | [2H][C@@]1(N2CCN(c3cc(C)nn3-c3ccccc3)CC2)CN[C@H](C(=O)N2CCSC2)C1 [Example 5]
